Experimental data published in paper PMC5444695, “CM363, a novel naphthoquinone derivative which acts as multikinase modulator and overcomes imatinib resistance in chronic myelogenous leukemia” (Oncotarget, 2016).

Legend:
PMBC = assay: MTT cell viability assay, PMBC; assay type: cell-based; conditions: Homo sapiens, 48 h, read-out: IC50 (μM) Mean ± SD
Description: (§1) All cell lines were purchased from the American Type Culture Collection (ATCC). The cell lines were growth at 37°C under 5% CO2 under humidified atmosphere. The cell lines K562 (derived from patients during the blast crisis phase of CML and IM sensitive), K562-R (IM resistance human CML), KmycBT15I (KBTI; IM resistant human CML, expressing the Bcr-Abl […] mutant), HEL (human erythroleukemia), HL60 (human acute myeloid leukemia), MOLM-13 (human acute myeloid leukemia), MV4.11 (human acute monocytic leukemia), HCT-15 (human colorectal adenocarcinoma), PC3 (human prostate cancer), MCF7 (human breast cancer), NCTC3749 (mouse lymphoma) as well as the MRC.5 cells (non-malignant human lung fibroblasts) were maintained in RPMI-1640 medium. The cell lines L1210 (mouse lymphocytic leukemia cells), Raw (mouse macrophage), HeLa (human epithelial cervix cancer), U-2 OS (human osteosarcoma), MG63 (human osteosarcoma) and T47D (human breast cancer adenocarcinoma) were maintained in DMEM. HEK293 cells stably expressing the GH receptor (HEKGHR) were maintained in DMEM-F12 medium. […]
(§2) Cells were seeded in 96-well plates (BD Falcon, France) at exponential growth density (5000–20000 cells/well) and treated with vehicle (0.05% DMSO) or compound (0.01 to 10 μM) for 48–72 h. […] Optical density was measured at 595 nm with the iMark Microplate Reader (BioRad, CA, USA).

MCF7 cells = assay: MTT cell viability assay, MCF7 cells; assay type: cell-based; conditions: Homo sapiens, MCF7, 48 h, read-out: IC50 (μM) Mean ± SD
Description: as §1, §2

K562-R cells = assay: MTT cell viability assay, IM-resistant K562-R cells; assay type: cell-based, human; conditions: 72 h, MTT (Fig 10D)
Description: All cell lines were purchased from the American Type Culture Collection (ATCC). The cell lines were growth at 37°C under 5% CO2 under humidified atmosphere. […] The cell lines L1210 (mouse lymphocytic leukemia cells), Raw (mouse macrophage), HeLa (human epithelial cervix cancer), U-2 OS (human osteosarcoma), MG63 (human osteosarcoma) and T47D (human breast cancer adenocarcinoma) were maintained in DMEM. HEK293 cells stably expressing the GH receptor (HEKGHR) were maintained in DMEM-F12 medium. The human breast cancer cell line SKBR3 was maintained in McCoy’s 5A medium. Cell culture medium was supplemented with 10% FBS, L-glutamine (2 mM) and PEST. In addition, the cell culture medium for T47D was supplemented with 1 mM NaPyr and 10 mM HEPES. Human peripheral blood mononuclear cells (PBMC) were isolated from heparin-anticoagulated blood of healthy volunteers by centrifugation with Ficoll-Paque Plus (Amersham Biosciences).
The mitochondrial metabolization of the tetrazolium salt 3-(4,5-methyltiazol-2yl-)-2,5diphenyl-tetrazolium bromide] (MTT) (Applichen, Germany) was used as indicator of cell viability. Optical density was measured at 595 nm with the iMark Microplate Reader (BioRad, CA, USA).

With `N#Cc1ccc(C2C3=C(CCCC3=O)OC3=C2C(=O)c2ccccc2C3=O)cc1` (stereo not shown) [CM363, 4-(1,6,11-trioxo-2,3,4,6,11,12-hexahydro-1H-benzo[b]xanthen-12-yl)benzonitrile] the IC50 (PMBC) was > 5 µM, the IC50 (MCF7 cells) was 1.7 ± 1.1 µM and the “lowest concentration at which inhibition was detected” value (K562-R cells) was 0.3 µM. It also gave an IC50 (K562-R cells; Homo sapiens, K-562R) of ~600 nM.
